From patent EP1743636A1, “Combination of a substituted pyrazoline compound and a drug used in food-related disorders” (LABORATORIOS DEL DR. ESTEVE, S.A., priority 2005, dated 2007) come the findings set out here.

In assay [1] the test system is Male NMRI mice. The experiment in a line: Mouse tetrad model: catalepsy. Type of assay: in vivo. The following applies: for Antagonistic Effect C: Catalepsy: 5 mg/kg i.v. prior to Win 55212-2 in a dose of 1,25mg/kg i.v.; for Agonistic effect C: Catalepsy: 5 mg/kg i.v., measured 20 minutes after injection. An excerpt:
(§1) Substances with affinity for cannabinoid receptors are known to produce a wide range of pharmacological effects. It is also known that intravenous administration of a substance with affinity for cannabinoid receptors in mice produces analgesia , hypothermia, sedation and catalepsy. Individually, none of these effects can be considered as proof that a tested substance has affinity for cannabinoid-receptors, since all of these effects are common for various classes of centrally active agents. However, substances, which show all of these effects, i.e. substances that are active in this so-called tetrad model are considered to have affinity for the cannabinoid receptors. It has further been shown that cannabinoid receptor antagonists are higly effective in blocking the effects of a cannabinoid agonist in the mouse tetrad model.
(§2) The tetrad model is described, for example, in the publication of A. C. Howlett et al, International Union of Pharmacology XXVII. Classification of Cannabinoid Receptors, Pharmacol Rev 54, 161-202, 2002 and David R. Compton et al., "In-vivo Characterization of a Specific Cannabinoid Receptor Antagonist (SR141716A) :Inhibition of Tetrahydrocannbinol- induced Responses and Apparent Agonist Activity", J. Pharmacol. Exp. Ther. 277 , 2, 586-594, 1996. The corresponding parts of the description are hereby incorporated by reference. […]
(§3) Before testing in the behavioral procedures given below, mice are acclimatized to the experimental setting. Pre-Treatment control values are determined for analgesia hot plate latency (in seconds), rectal temperature, sedation and catalepsy.
(§4) In order to determine the agonistic activty of the substance to be tested, the mice are injected intravenously with the substance to be tested or the vehicle alone. 15 minutes after injection, latency in hot plate analgesia is measured. Rectal temperature, sedation and catalepsy are measured 20 minutes after injection.
(§5) In order to determine the antagonistic activity the identical procedure is used as for the determination of the agonistic effects, but with the difference that the substance to be evaluated for its antagonistic activity is injectected 5 minutes before the intravenous injection of 1.25 mg/kg Win-55,212 a known cannabinoid-receptor agonist.
Catalepsy is determined according to the method described in Alpermann H. G. et al. "Pharmacological effets of Hoe 249: A new potential antidepressant", Drugs Dev. […]
The cataleptic effect of the substance to be tested is evaluated according to the duration of catalepsy, whereby the animals are placed head downwards with their kinlegs upon the top of the wooden block. […]
The percentage of catalepsy is determined according ot the following formula: %Catalepsy = arithmetic mean/6 × 100 [formula] […]

The test system of assay [2] is Male NMRI mice. The assay is described as follows: Mouse tetrad model: sedation and ataxia. Type of assay: in vivo. The following applies: for Antagonistic Effect D: Sedation: 5 mg/kg i.v. prior to Win 55212-2 in a dose of 1,25mg/kg i.v.; for Agonistic effect D: Sedation: 5 mg/kg i.v., measured 20 minutes after injection.
Excerpt: as §1
The tetrad model is described, for example, in the publication of A. C. Howlett et al, International Union of Pharmacology XXVII. Classification of Cannabinoid Receptors, Pharmacol Rev 54, 161-202, 2002 and David R. Compton et al., "In-vivo Characterization of a Specific Cannabinoid Receptor Antagonist (SR141716A) :Inhibition of Tetrahydrocannbinol- induced Responses and Apparent Agonist Activity", J. Pharmacol. Exp. Ther. 277 , 2, 586-594, 1996. The corresponding parts of the description are hereby incorporated by reference.
Male NMRI mice with a weight of 20-30 g (Harlan, Barcelona, Spain) are used in all of the following experiments.
as §3, §4, §5
Sedation and ataxia is determined according to the method described in Desmet L. K. C. et al. "Anticonvulsive properties of Cinarizine and Flunarizine in Rats and Mice", Arzneim. -Forsch. (Frug Res) 25, 9, 1975. […]
The percentage of sedation is determined according to the formula: %of sedation = arithmetic mean/3 × 100 [formula]
(§6) The determinination of cannabinoid activity in-vivo was determined as described above. […]

Assay [3] concerns Male NMRI mice. The assay is described as follows: Mouse tetrad model: hot plate analgesia. Type of assay: in vivo. To be noted: for Antagonistic Effect A: Hot-Plate test: 5 mg/kg i.v. prior to Win 55212-2 in a dose of 1,25mg/kg i.v.; for Agonistic effect A: Hot-Plate test: 5 mg/kg i.v., measured 15 minutes after injection.
Excerpt: as §1, §2, §3, §4, §5
The hot plate analgesia is determined according to the method described in Woolfe D. et al. "The evaluation of analgesic action of pethidine hydrochloride (Demerol)", J. Pharmacol. Exp. Ther. 80, 300-307,1944. […]
The mice are placed on a hot plate (Harvard Analgesimeter) at 55 ± 0.5 °C until they show a painful sensation by licking their paws or jumping and the time for these sensations to occur is recorded. This reading is considered the basal value (B). […]
as §6
(In general: Hot-plate and tail-flick tests time the reaction to a heat stimulus.)

Assay [4] has as its target T1, transfected human CB1 receptors (Homo sapiens, UniProt P21554).
T1 construct: purchased Receptor Biology, Inc
The experiment in a line: In-vitro determination of affinity to CB1 receptor (radioligand [3H]-CP55940). The format is binding. The following applies: for inhibition at 1 µM: read-out: CB1-Receptor % Inhibition 10^-6 M. On the procedure:
(§7) The in-vitro determination of the affinity of the substituted pyrazoline compounds to CB1/CB2-Rezeptors is carried out as described in the publication of Ruth A. Ross, Heather C. Brockie et al., "Agonist-inverse agonist characterization at CB1 and CB2 cannabinoid receptors of L-759633, L759656 and AM630", British Journal of Pharmacology, 126, 665-672, (1999), whereby the transfected human CB1 and CB2 receptors of Receptor Biology, Inc. are used. The radioligand used for both receptors is [^3H]-CP55940. The respective parts of the description is hereby incorporated by reference and forms part of the present disclosure. The affinity of the inventive substituted pyrazoline compounds to CB1/CB2 receptors was determined as described above.

Assay [5] relates to Male NMRI mice. The experiment in a line: Mouse tetrad model: hypothermia. The format is in vivo. The following applies: for Antagonistic Effect B: Hypothermia: 5 mg/kg i.v. prior to Win 55212-2 in a dose of 1,25mg/kg i.v.; for Agonistic effect B: Hypothermia: 5 mg/kg i.v., measured 20 minutes after injection.
Excerpt: as §1, §2, §3, §4, §5
Hypothermia is determined according to the method described in David R. Compton et al. "In-vivo Characterization of a Specific Cannabinoid Receptor Antagonist (SR141716A) Inhibition of Tetrahydrocannbinol- induced Responses and Apparent Agonist Activity", J. Pharmacol Exp Ther. 277 , 2, 586-594, 1996. […]
The base-line rectal temperatures are determined with a thermometer (Yello Springs Instruments Co., Panlabs) and a thermistor probe inserted to 25mm before the administration of the substance to be tested. […]

Assay [6] has as its target T2, transfected human CB2 receptors (Homo sapiens, UniProt P34972).
T2 construct: purchased Receptor Biology, Inc
The experiment in a line: In-vitro determination of affinity to CB2 receptor (radioligand [3H]-CP55940). The format is binding. To be noted: for Ki: radioligand [3H]-CP55940; for inhibition at 1 µM: read-out: CB2-Receptor % Inhibition 10^-6 M. On the procedure: as §7

Like-named read-outs stand apart in the source and are kept apart here.

T1 sequence (P21554 whole entry): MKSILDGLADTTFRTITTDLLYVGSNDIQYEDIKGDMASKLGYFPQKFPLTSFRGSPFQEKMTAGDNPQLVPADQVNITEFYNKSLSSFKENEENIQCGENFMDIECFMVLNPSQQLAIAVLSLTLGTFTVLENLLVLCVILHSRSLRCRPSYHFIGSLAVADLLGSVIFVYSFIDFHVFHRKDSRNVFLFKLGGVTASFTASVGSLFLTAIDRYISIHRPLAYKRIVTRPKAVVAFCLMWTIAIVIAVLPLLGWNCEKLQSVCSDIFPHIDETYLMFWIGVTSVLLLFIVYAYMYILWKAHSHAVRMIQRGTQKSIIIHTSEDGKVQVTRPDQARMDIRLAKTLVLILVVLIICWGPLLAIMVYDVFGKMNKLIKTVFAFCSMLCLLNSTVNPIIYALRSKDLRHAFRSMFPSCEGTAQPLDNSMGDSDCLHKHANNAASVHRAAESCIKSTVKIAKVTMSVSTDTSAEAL
T2 sequence (P34972 whole entry): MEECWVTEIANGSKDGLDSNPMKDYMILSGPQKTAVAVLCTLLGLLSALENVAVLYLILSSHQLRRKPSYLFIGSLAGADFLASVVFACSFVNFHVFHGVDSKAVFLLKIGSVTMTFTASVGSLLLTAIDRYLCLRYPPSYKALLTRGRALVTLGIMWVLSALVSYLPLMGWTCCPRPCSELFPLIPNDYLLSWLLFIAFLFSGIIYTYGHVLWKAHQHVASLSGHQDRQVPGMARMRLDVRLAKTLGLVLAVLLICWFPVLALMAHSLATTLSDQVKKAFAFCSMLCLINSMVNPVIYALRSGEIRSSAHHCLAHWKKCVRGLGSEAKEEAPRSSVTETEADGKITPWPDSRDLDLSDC

For `O=C(NN1CCCCC1)C1=NN(c2ccc(Cl)cc2Cl)C(c2ccc(Cl)cc2)C1` (stereo not drawn) [Example 1, N-piperidinyl-5-(4-chlorophenyl)-1-(2,4-dichlorophenyl)-4,5-dihydro-1H-pyrazole-3-carboxamide], in the assay on Male NMRI mice [1], the “Antagonistic Effect C: Catalepsy” value was found to be 100 and the “Agonistic effect C: Catalepsy” value worked out at 0. Besides, in the assay with Male NMRI mice [2], the “Antagonistic Effect D: Sedation” value worked out at 100 and the “Agonistic effect D: Sedation” value is 0. In the assay with Male NMRI mice [3], the “Antagonistic Effect A: Hot-Plate test” value turned out to be 74 and the “Agonistic effect A: Hot-Plate test” value was 0. In assay [4], the Ki was less than 25 nM and the inhibition at 1 µM is 93%. In the assay on Male NMRI mice [5], the “Antagonistic Effect B: Hypothermia” value is given as 100 and the “Agonistic effect B: Hypothermia” value is recorded as 0. In addition, in assay [6], the Ki was more than 1000 nM and the inhibition at 1 µM turned out to be 33%.
Take `O=C(C1=NN(c2ccc(Cl)cc2Cl)C(c2ccc(Cl)cc2)C1)N1CCCCC1` (stereo not drawn) [Example 5, [5-(4-Chloro-phenyl)-1-(2,4-dichloro-phenyl)-4,5-dihydro-1H-pyrazol-3-yl]-piperidin-1-yl-methanone]: in the assay on Male NMRI mice [1], the “Antagonistic Effect C: Catalepsy” value is given as 20 and the “Agonistic effect C: Catalepsy” value is recorded as 0. In the assay with Male NMRI mice [2], the “Antagonistic Effect D: Sedation” value came to 20 and the “Agonistic effect D: Sedation” value worked out at 0. For the same compound, in the assay on Male NMRI mice [3], the “Antagonistic Effect A: Hot-Plate test” value is 50 and the “Agonistic effect A: Hot-Plate test” value is reported as 0. Moreover, the inhibition constant (Ki) in assay [4] (radioligand [3H]-CP55940, read-out: CB1-Receptor Ki) is 111 nM. Besides, in assay [4], the inhibition at 1 µM turned out to be 79%. For the same compound, in the assay on Male NMRI mice [5], the “Antagonistic Effect B: Hypothermia” value amounted to 40 and the “Agonistic effect B: Hypothermia” value came to 50. Also, in assay [6], the inhibitory constant (Ki) is approximately 1000 nM and the inhibition at 1 µM came out at 54%.

The Ki is the dissociation constant of the complex between target and ligand, obtained from inhibition or displacement. One may read the inhibition as the drop in the measured response relative to a control, in per cent.
